Results taken from US7445909B2, “Method for detecting reactive metabolites using a combination of glutathione and a stable isotopic derivative of glutathione and mass spectroscopy-based pattern recognition” (Janssen Phamaceutica N.V., priority 2004, dated 2008).

Legend:
[1] = tested on: human microsomal proteins; test: Stable isotope (GSH/GSX) trapping of reactive metabolites in microsomal incubation, FIA-MS/MS neutral loss scanning of 129 Da; type: in vitro ADME; conditions: 10 μM test compound, 1 mg/mL human microsomal proteins, 1 mM GSH and GSX (1:1), 60 min, 37° C.; flow injection FIA-MS/MS, analysis within 30 sec
Method: All microsomal incubations described herein were performed at 37° C. in a water bath. The test compound (or drug candidate) was mixed with human microsomal proteins in 50 mM potassium phosphate buffer (pH 7.4) supplemented with GSH and GSX that were pre-mixed at an equal molar ratio of 1:1. Reaction mixtures were then warmed at 37° C. for 5 min. The reactions were initiated by the addition of a NADPH generating system to yield a final volume of 1000 μL. The final reaction mixtures contained 10 μM test compounds, 1 mg/mL microsomal proteins, 1 mM GSH and GSX, 1.3 mM NADP^+, 3.3 mM glucose-6-phosphate, 0.4 U/ml glucose-6-phosphate dehydrogenase, 3.3 mM magnesium chloride. After a 60 min incubation, the reactions were terminated by the addition of 150 μL of trichloroacetic acid (10%). The samples were centrifuged at 10,000 g for 15 min at 4° C. to pellet the precipitated protein, and the supernatants were subjected to solid-phase extractions. […]
For rapid screening of reactive metabolites (as described in Example 11), cleaned samples were directly injected to the mass spectrometer that was operated in the neutral scanning mode. […] After a glutathione conjugate was detected, CID MS/MS spectrum was subsequently acquired to determine the structure of the glutathione conjugate. […]

[2] = tested on: human microsomal proteins; test: Stable isotope (GSH/GSX) trapping of reactive metabolites in microsomal incubation, LC-MS/MS neutral loss scanning of 129 Da; type: in vitro ADME; conditions: 10 μM test compound, 1 mg/mL human microsomal proteins, 1 mM GSH and GSX (1:1), NADPH generating system, 60 min, 37° C., pH 7.4
Method: All microsomal incubations described herein were performed at 37° C. in a water bath. […] Alternatively, the reaction mixtures were subjected to liquid-liquid extractions to recover the metabolites from supernatants.
MS analyses were performed on a Micromass (Manchester, UK) Quattro Micro triple quadrupole mass spectrometer.
For complete profiling of reactive metabolites, samples were first subjected to chromatographic separations with an Agilent 1100 HPLC system with an auto-sampler (Agilent Technologies, Palo Alto, Calif.), and eluents were introduced to the Quattro Micro triple quadrupole mass spectrometer operated in the neutral loss scanning mode. An Agilent Zorbax SB C18 column (2.1×50 mm) was used for the chromatographic separation. […] At 7 min, the column was flushed with 95% acetonitrile for 2 min before re-equilibration at initial conditions. […] Data were processed using the Masslynx version 4.0 software from Micromass.

| detection of reactive metabolites (characteristic isotopic doublet of GSH/GSX adducts in neutral loss mass spectrum) [2] | SMILES | detection of reactive metabolite (characteristic isotopic doublet of GSH/GSX adducts in neutral loss mass spectrum) [1] |
| --- | --- | --- |
| two reactive metabolites were co-eluted | O=C(O)Cc1ccccc1Nc1c(Cl)cccc1Cl [Diclofenac] | – |
| no reactive metabolites were formed | NC(=O)OCC(COC(N)=O)c1ccccc1 [Felbamate] | – |

| SMILES | detection of reactive metabolites (characteristic isotopic doublet of GSH/GSX adducts in neutral loss mass spectrum) [2] | detection of reactive metabolite (characteristic isotopic doublet of GSH/GSX adducts in neutral loss mass spectrum) [1] |
| --- | --- | --- |
| C[C@]12CC[C@@H]3c4ccc(O)c(O)c4CC[C@H]3[C@@H]1CCC2=O [4-Hydroxyestrone] | only one component at a retention time of 5.11 min displayed characteristic doublet | the reactive metabolite was detected |
